Source: patent publication US20260144788A1, “COMPOUND FOR SHP2 PROTEIN DEGRADATION AND MEDICAL USES THEREOF” (UBIX THERAPEUTICS, INC., priority 2022, published 2026)

Target: T1, SHP2 protein (Homo sapiens, UniProt Q06124)
T1 sequence (Q06124 1-593): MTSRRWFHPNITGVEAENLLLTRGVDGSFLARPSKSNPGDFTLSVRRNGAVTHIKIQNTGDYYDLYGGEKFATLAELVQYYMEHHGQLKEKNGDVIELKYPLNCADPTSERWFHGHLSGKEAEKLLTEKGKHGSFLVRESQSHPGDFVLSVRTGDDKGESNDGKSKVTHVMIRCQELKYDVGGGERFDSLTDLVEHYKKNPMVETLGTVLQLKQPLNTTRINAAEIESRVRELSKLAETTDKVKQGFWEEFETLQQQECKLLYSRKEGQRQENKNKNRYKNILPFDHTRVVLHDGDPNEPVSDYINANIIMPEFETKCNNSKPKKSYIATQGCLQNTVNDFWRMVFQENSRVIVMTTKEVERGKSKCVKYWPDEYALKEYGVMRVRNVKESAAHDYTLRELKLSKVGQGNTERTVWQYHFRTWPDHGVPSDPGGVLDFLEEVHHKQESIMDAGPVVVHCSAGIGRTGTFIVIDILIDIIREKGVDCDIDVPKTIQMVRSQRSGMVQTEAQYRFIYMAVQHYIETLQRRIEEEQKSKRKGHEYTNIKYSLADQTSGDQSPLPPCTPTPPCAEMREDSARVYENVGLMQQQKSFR
Assay: Measurement of SHP2 protein degradation in MV-4-11 cells (western blotting)
Assay type: cell-based
Design: endogenous in cells
Details: harvested after 24 hours
Method in brief: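 MV-4-11 cells in IMDM/5% FBS were exposed to compound at final 0.01, 0.1, 1 μM or 0.001, 0.01, 0.1 μM for 24 h, DMSO as negative control. BCA-normalised lysates were immunoblotted for SHP2 with GAPDH as loading control, read on LI-COR Odyssey.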

Compound | SHP2% degradation (0.01 μM) [%] | SHP2% degradation (0.1 μM) [%]
Cc1ncsc1-c1ccc(CNC(=O)[C@@H]2C[C@@H](O)CN2C(=O)[C@@H](NC(=O)C2(F)CC2)C(C)(C)C)c(OC2CC3(CCN(C(=O)C4CCN(c5nccc(Sc6cnc(N7CCC(C)(CN)CC7)cn6)c5Cl)CC4)CC3)C2)c1 [Example 57, (2S,4R)—N-(2-((7-(1-(4-((5-(4-(aminomethyl)-4-methylpiperidin-1-yl)pyrazin-2-yl)thio)-3-chloropyridin-2-yl)piperidine-4-carbonyl)-7-azaspiro[3.5]nonan-2-yl)oxy)-4-(4-methylthiazol-5-yl)benzyl)-1-((S)-2-(1-fluorocyclopropane-1-carboxamido)-3,3-dimethylbutanoyl)-4-hydroxypyrrolidine-2-carboxamide] | 65.7 | 96.8
Cc1ncsc1-c1ccc(CNC(=O)[C@@H]2C[C@@H](O)CN2C(=O)[C@@H](NC(=O)C2(F)CC2)C(C)(C)C)c(OCC2CCN(C(=O)C3CCN(c4nccc(Sc5cnc(N6CCC(C)(CN)CC6)cn5)c4Cl)CC3)CC2)c1 [Example 58, (2S,4R)—N-(2-((1-(1-(4-((5-(4-(aminomethyl)-4-methylpiperidin-1-yl)pyrazin-2-yl)thio)-3-chloropyridin-2-yl)piperidine-4-carbonyl)piperidin-4-yl)methoxy)-4-(4-methylthiazol-5-yl)benzyl)-1-((S)-2-(1-fluorocyclopropane-1-carboxamido)-3,3-dimethylbutanoyl)-4-hydroxypyrrolidine-2-carboxamide] | 82.0 | 97.7
Cc1ncsc1-c1ccc(CNC(=O)[C@@H]2C[C@@H](O)CN2C(=O)[C@@H](NC(=O)C2(F)CC2)C(C)(C)C)c(OC2CCN(C(=O)[C@H]3C[C@@H](Nc4nccc(Sc5cnc(N6CCC(C)(CN)CC6)cn5)c4Cl)C3)CC2)c1 [Example 59, (2S,4R)—N-(2-((1-((1s,3R)-3-((4-((5-(4-(aminomethyl)-4-methylpiperidin-1-yl)pyrazin-2-yl)thio)-3-chloropyridin-2-yl)amino)cyclobutanecarbonyl)piperidin-4-yl)oxy)-4-(4-methylthiazol-5-yl)benzyl)-1-((S)-2-(1-fluorocyclopropane-1-carboxamido)-3,3-dimethylbutanoyl)-4-hydroxypyrrolidine-2-carboxamide] | 81.7 | 99.5
Cc1ncsc1-c1ccc(CNC(=O)[C@@H]2C[C@@H](O)CN2C(=O)[C@@H](NC(=O)C2(F)CC2)C(C)(C)C)c(OC2CCN(C(=O)[C@H]3C[C@@H](Nc4nccc(Sc5cnc(N6CCC(C)(N)CC6)cn5)c4Cl)C3)CC2)c1 [Example 60, (2S,4R)—N-(2-((1-((1S,3R)-3-((4-((5-(4-amino-4-methylpiperidin-1-yl)pyrazin-2-yl)thio)-3-chloropyridin-2-yl)amino)cyclobutanecarbonyl)piperidin-4-yl)oxy)-4-(4-methylthiazol-5-yl)benzyl)-1-((S)-2-(1-fluorocyclopropane-1-carboxamido)-3,3-dimethylbutanoyl)-4-hydroxypyrrolidine-2-carboxamide] | 81.5 | 99.3
Cc1ncsc1-c1ccc(CNC(=O)[C@@H]2C[C@@H](O)CN2C(=O)[C@@H](NC(=O)C2(F)CC2)C(C)(C)C)c(OC2CCN(C(=O)[C@H]3C[C@H](Nc4nccc(Sc5cnc(N6CCC(C)(CN)CC6)cn5)c4Cl)C3)CC2)c1 [Example 61, (2S,4R)—N-(2-((1-((1r,3S)-3-((4-((5-(4-(aminomethyl)-4-methylpiperidin-1-yl)pyrazin-2-yl)thio)-3-chloropyridin-2-yl)amino)cyclobutanecarbonyl)piperidin-4-yl)oxy)-4-(4-methylthiazol-5-yl)benzyl)-1-((S)-2-(1-fluorocyclopropane-1-carboxamido)-3,3-dimethylbutanoyl)-4-hydroxypyrrolidine-2-carboxamide] | 80.3 | 99.3
Cc1ncsc1-c1ccc(CNC(=O)[C@@H]2C[C@@H](O)CN2C(=O)[C@@H](NC(=O)C2(F)CC2)C(C)(C)C)c(OC2CCN(C(=O)[C@H]3CC[C@H](Nc4nccc(Sc5cnc(N6CCC(C)(CN)CC6)cn5)c4Cl)CC3)CC2)c1 [Example 62, (2S,4R)—N-(2-((1-((1R,4S)-4-((4-((5-(4-(aminomethyl)-4-methylpiperidin-1-yl)pyrazin-2-yl)thio)-3-chloropyridin-2-yl)amino)cyclohexanecarbonyl)piperidin-4-yl)oxy)-4-(4-methylthiazol-5-yl)benzyl)-1-((S)-2-(1-fluorocyclopropane-1-carboxamido)-3,3-dimethylbutanoyl)-4-hydroxypyrrolidine-2-carboxamide] | 75.6 | 98.9
Cc1ncsc1-c1ccc(CNC(=O)[C@@H]2C[C@@H](O)CN2C(=O)[C@@H](NC(=O)C2(F)CC2)C(C)(C)C)c(OC2CCN(C(=O)C3CCN(c4nccc(Sc5cnc(N6CCC(C)(CN)CC6)cn5)c4Cl)CC3)CC2)c1 [Example 65, (2S,4R)—N-(2-((1-(1-(4-((5-(4-(aminomethyl)-4-methylpiperidin-1-yl)pyrazin-2-yl)thio)-3-chloropyridin-2-yl)piperidine-4-carbonyl)piperidin-4-yl)oxy)-4-(4-methylthiazol-5-yl)benzyl)-1-((S)-2-(1-fluorocyclopropane-1-carboxamido)-3,3-dimethylbutanoyl)-4-hydroxypyrrolidine-2-carboxamide] | 85.2 | 98.1
Cc1ncsc1-c1ccc(CNC(=O)[C@@H]2C[C@@H](O)CN2C(=O)[C@@H](NC(=O)C2(F)CC2)C(C)(C)C)c(OC2CCN(C(=O)C3CCN(c4nccc(Sc5cnc(N6CCC(C)(N)CC6)cn5)c4Cl)CC3)CC2)c1 [Example 66, (2S,4R)—N-(2-((1-(1-(4-((5-(4-amino-4-methylpiperidin-1-yl)pyrazin-2-yl)thio)-3-chloropyridin-2-yl)piperidine-4-carbonyl)piperidin-4-yl)oxy)-4-(4-methylthiazol-5-yl)benzyl)-1-((S)-2-(1-fluorocyclopropane-1-carboxamido)-3,3-dimethylbutanoyl)-4-hydroxypyrrolidine-2-carboxamide] | 78.6 | 99.6
Cc1ncsc1-c1ccc(CNC(=O)[C@@H]2C[C@@H](O)CN2C(=O)[C@@H](NC(=O)C2(F)CC2)C(C)(C)C)c(OC2CCN(C(=O)C3(C)CCN(c4nccc(Sc5cnc(N6CCC(C)(CN)CC6)cn5)c4Cl)CC3)CC2)c1 [Example 68, (2S,4R)—N-(2-((1-(1-(4-((5-(4-(aminomethyl)-4-methylpiperidin-1-yl)pyrazin-2-yl)thio)-3-chloropyridin-2-yl)-4-methylpiperidine-4-carbonyl)piperidin-4-yl)oxy)-4-(4-methylthiazol-5-yl)benzyl)-1-((S)-2-(1-fluorocyclopropane-1-carboxamido)-3,3-dimethylbutanoyl)-4-hydroxypyrrolidine-2-carboxamide] | −22.1 | 95.7
Cc1ncsc1-c1ccc(CNC(=O)[C@@H]2C[C@@H](O)CN2C(=O)[C@@H](NC(=O)C2(F)CC2)C(C)(C)C)c(OC2CCN(C(=O)C3(F)CCN(c4nccc(Sc5cnc(N6CCC(C)(CN)CC6)cn5)c4Cl)CC3)CC2)c1 [Example 69, (2S,4R)—N-(2-((1-(1-(4-((5-(4-(aminomethyl)-4-methylpiperidin-1-yl)pyrazin-2-yl)thio)-3-chloropyridin-2-yl)-4-fluoropiperidine-4-carbonyl)piperidin-4-yl)oxy)-4-(4-methylthiazol-5-yl)benzyl)-1-((S)-2-(1-fluorocyclopropane-1-carboxamido)-3,3-dimethylbutanoyl)-4-hydroxypyrrolidine-2-carboxamide] | 19.9 | 99.8
Cc1ncsc1-c1ccc(CNC(=O)[C@@H]2C[C@@H](O)CN2C(=O)[C@@H](NC(=O)C2(F)CC2)C(C)(C)C)c(OC2CCN(C(=O)C3(O)CCN(c4nccc(Sc5cnc(N6CCC(C)(CN)CC6)cn5)c4Cl)CC3)CC2)c1 [Example 70, (2S,4R)—N-(2-((1-(1-(4-((5-(4-(aminomethyl)-4-methylpiperidin-1-yl)pyrazin-2-yl)thio)-3-chloropyridin-2-yl)-4-hydroxypiperidine-4-carbonyl)piperidin-4-yl)oxy)-4-(4-methylthiazol-5-yl)benzyl)-1-((S)-2-(1-fluorocyclopropane-1-carboxamido)-3,3-dimethylbutanoyl)-4-hydroxypyrrolidine-2-carboxamide] | 84.5 | 99.9
Cc1ncsc1-c1ccc(CNC(=O)[C@@H]2C[C@@H](O)CN2C(=O)[C@@H](NC(=O)C2(F)CC2)C(C)(C)C)c(OC2CCN(C(=O)CC3CCN(c4nccc(Sc5cnc(N6CCC(C)(CN)CC6)cn5)c4Cl)CC3)CC2)c1 [Example 71, (2S,4R)—N-(2-((1-(2-(1-(4-((5-(4-(aminomethyl)-4-methylpiperidin-1-yl)pyrazin-2-yl)thio)-3-chloropyridin-2-yl)piperidin-4-yl)acetyl)piperidin-4-yl)oxy)-4-(4-methylthiazol-5-yl)benzyl)-1-((S)-2-(1-fluorocyclopropane-1-carboxamido)-3,3-dimethylbutanoyl)-4-hydroxypyrrolidine-2-carboxamide] | 60.0 | 99.4
